Data reported in the NIST ThermoML archive (doi:10.1021/acs.jced.7b01030).
Where “and” joins values, the source holds several entries; their conditions need not be identical. Identical values can stand only once. ± gives the expanded uncertainty stated by the source.

Conditions: Liquid; for mass density: Vibrating tube method; for viscosity: Falling or rolling sphere viscometry; for self diffusion coefficient: NMR spin-echo technique

OCC(F)(F)F [2,2,2-trifluoroethanol]
mass density (303.15 K, 100 kPa): 1374.17 ± 0.63 kg/m3 | viscosity (308.15 K, 100 kPa): 1.384 ± 0.057 mPa·s | self diffusion coefficient (308.28 K, 100 kPa): 9.35e-10 m2/s | viscosity (313.15 K, 100 kPa): 1.219 ± 0.05 mPa·s and 1.221 ± 0.05 mPa·s | mass density (313.15 K, 100 kPa): 1356.64 ± 0.63 kg/m3 | viscosity (318.15 K, 100 kPa): 1.081 ± 0.044 mPa·s and 1.078 ± 0.044 mPa·s | self diffusion coefficient (318.17 K, 100 kPa): 1.24e-09 m2/s and 1.22e-09 m2/s | viscosity (322.14 K, 10500 kPa): 1.125 ± 0.046 mPa·s and 1.128 ± 0.046 mPa·s | viscosity (322.14 K, 25500 kPa): 1.286 ± 0.052 mPa·s | viscosity (322.14 K, 50500 kPa): 1.561 ± 0.064 mPa·s | viscosity (322.14 K, 75000 kPa): 1.827 ± 0.074 mPa·s | viscosity (322.14 K, 75200 kPa): 1.828 ± 0.074 mPa·s | viscosity (322.14 K, 100300 kPa): 2.137 ± 0.087 mPa·s | viscosity (323.15 K, 100 kPa): 0.989 ± 0.04 mPa·s [middle of 9 runs] | mass density (323.15 K, 100 kPa): 1338.58 ± 0.63 kg/m3 | viscosity (323.15 K, 10000 kPa): 1.091 ± 0.045 mPa·s | viscosity (323.15 K, 10100 kPa): 1.09 ± 0.045 mPa·s | viscosity (323.15 K, 25300 kPa): 1.246 ± 0.051 mPa·s | viscosity (323.15 K, 25400 kPa): 1.248 ± 0.051 mPa·s | viscosity (323.15 K, 49500 kPa): 1.492 ± 0.061 mPa·s | viscosity (323.15 K, 49700 kPa): 1.493 ± 0.061 mPa·s | viscosity (323.15 K, 74800 kPa): 1.781 ± 0.073 mPa·s | viscosity (323.15 K, 75000 kPa): 1.789 ± 0.073 mPa·s | viscosity (323.15 K, 99900 kPa): 2.075 ± 0.086 mPa·s | viscosity (323.15 K, 100000 kPa): 2.073 ± 0.084 mPa·s | viscosity (323.15 K, 100400 kPa): 2.096 ± 0.087 mPa·s and 2.093 ± 0.086 mPa·s | viscosity (323.15 K, 125000 kPa): 2.396 ± 0.098 mPa·s | viscosity (323.15 K, 125400 kPa): 2.395 ± 0.098 mPa·s | viscosity (323.15 K, 150100 kPa): 2.737 ± 0.11 mPa·s | viscosity (323.15 K, 150500 kPa): 2.738 ± 0.11 mPa·s | viscosity (323.15 K, 176000 kPa): 3.131 ± 0.13 mPa·s | viscosity (323.15 K, 200300 kPa): 3.654 ± 0.16 mPa·s | viscosity (323.15 K, 200800 kPa): 3.651 ± 0.39 mPa·s | viscosity (323.15 K, 210100 kPa): 3.837 ± 0.16 mPa·s and 3.849 ± 0.16 mPa·s | viscosity (323.15 K, 225200 kPa): 4.134 ± 0.27 mPa·s | viscosity (323.15 K, 225300 kPa): 4.131 ± 0.24 mPa·s | viscosity (323.15 K, 226700 kPa): 4.028 ± 0.2 mPa·s | viscosity (323.15 K, 227900 kPa): 4.058 ± 0.28 mPa·s | viscosity (323.15 K, 248900 kPa): 4.6 ± 0.24 mPa·s | viscosity (323.15 K, 249400 kPa): 4.614 ± 0.24 mPa·s | viscosity (323.15 K, 275300 kPa): 5.192 ± 0.21 mPa·s | viscosity (323.15 K, 275600 kPa): 5.209 ± 0.21 mPa·s | viscosity (323.15 K, 300600 kPa): 5.834 ± 0.78 mPa·s | viscosity (323.15 K, 301200 kPa): 5.853 ± 0.82 mPa·s | viscosity (323.15 K, 325600 kPa): 6.509 ± 0.9 mPa·s | viscosity (323.15 K, 326200 kPa): 6.562 ± 0.51 mPa·s | viscosity (323.15 K, 347900 kPa): 7.187 ± 0.56 mPa·s | viscosity (323.15 K, 349200 kPa): 7.207 ± 0.56 mPa·s | self diffusion coefficient (323.4 K, 100 kPa): 1.45e-09 m2/s | self diffusion coefficient (323.5 K, 100 kPa): 1.39e-09 m2/s | self diffusion coefficient (323.51 K, 100 kPa): 1.42e-09 m2/s | self diffusion coefficient (323.51 K, 23000 kPa): 1.21e-09 m2/s | self diffusion coefficient (323.51 K, 50000 kPa): 1.01e-09 m2/s | self diffusion coefficient (323.51 K, 74000 kPa): 8.73e-10 m2/s | self diffusion coefficient (323.51 K, 99500 kPa): 7.59e-10 m2/s | self diffusion coefficient (323.51 K, 300000 kPa): 3.12e-10 m2/s | self diffusion coefficient (323.52 K, 150000 kPa): 5.97e-10 m2/s | self diffusion coefficient (323.52 K, 198500 kPa): 4.81e-10 m2/s | self diffusion coefficient (323.52 K, 249000 kPa): 3.9e-10 m2/s | self diffusion coefficient (323.53 K, 351000 kPa): 2.57e-10 m2/s | viscosity (328.15 K, 100 kPa): 0.8939 ± 0.037 mPa·s and 0.8974 ± 0.037 mPa·s | self diffusion coefficient (328.35 K, 100 kPa): 1.63e-09 m2/s | viscosity (333.15 K, 100 kPa): 0.8117 ± 0.033 mPa·s | mass density (333.15 K, 100 kPa): 1319.81 ± 0.62 kg/m3 | viscosity (338.15 K, 100 kPa): 0.7379 ± 0.03 mPa·s and 0.7382 ± 0.03 mPa·s | mass density (338.15 K, 100 kPa): 1310.14 ± 0.62 kg/m3 | self diffusion coefficient (338.44 K, 100 kPa): 1.95e-09 m2/s | self diffusion coefficient (342.8 K, 100 kPa): 2.21e-09 m2/s | viscosity (343.15 K, 100 kPa): 0.671 ± 0.028 mPa·s [middle of 5 runs] | mass density (343.15 K, 100 kPa): 1300.26 ± 0.62 kg/m3 | viscosity (343.15 K, 10500 kPa): 0.7504 ± 0.031 mPa·s and 0.7498 ± 0.031 mPa·s | viscosity (343.15 K, 25500 kPa): 0.8438 ± 0.034 mPa·s | viscosity (343.15 K, 50000 kPa): 1.016 ± 0.041 mPa·s | viscosity (343.15 K, 76400 kPa): 1.229 ± 0.05 mPa·s and 1.228 ± 0.05 mPa·s | viscosity (343.15 K, 99900 kPa): 1.425 ± 0.058 mPa·s | viscosity (343.15 K, 100500 kPa): 1.411 ± 0.058 mPa·s | viscosity (343.15 K, 100700 kPa): 1.419 ± 0.058 mPa·s and 1.416 ± 0.058 mPa·s | viscosity (343.15 K, 100900 kPa): 1.421 ± 0.058 mPa·s | viscosity (343.15 K, 125800 kPa): 1.666 ± 0.068 mPa·s | viscosity (343.15 K, 126100 kPa): 1.66 ± 0.068 mPa·s | viscosity (343.15 K, 150000 kPa): 1.894 ± 0.077 mPa·s | viscosity (343.15 K, 150200 kPa): 1.899 ± 0.077 mPa·s | viscosity (343.15 K, 175300 kPa): 2.141 ± 0.087 mPa·s | viscosity (343.15 K, 175600 kPa): 2.149 ± 0.087 mPa·s | viscosity (343.15 K, 200400 kPa): 2.397 ± 0.098 mPa·s | viscosity (343.15 K, 200700 kPa): 2.409 ± 0.098 mPa·s | viscosity (343.15 K, 225200 kPa): 2.644 ± 0.11 mPa·s | viscosity (343.15 K, 225400 kPa): 2.672 ± 0.11 mPa·s | viscosity (343.15 K, 249500 kPa): 2.924 ± 0.12 mPa·s | viscosity (343.15 K, 249800 kPa): 2.935 ± 0.12 mPa·s | viscosity (343.15 K, 276600 kPa): 3.259 ± 0.13 mPa·s | viscosity (343.15 K, 277100 kPa): 3.277 ± 0.13 mPa·s | viscosity (343.15 K, 300300 kPa): 3.57 ± 0.15 mPa·s | viscosity (343.15 K, 301200 kPa): 3.596 ± 0.15 mPa·s | viscosity (343.15 K, 325100 kPa): 3.91 ± 0.16 mPa·s | viscosity (343.15 K, 325600 kPa): 3.939 ± 0.16 mPa·s | viscosity (343.15 K, 350100 kPa): 4.306 ± 0.18 mPa·s | viscosity (343.15 K, 352100 kPa): 4.376 ± 0.18 mPa·s | self diffusion coefficient (348.02 K, 152000 kPa): 1.06e-09 m2/s | self diffusion coefficient (348.06 K, 25000 kPa): 2.11e-09 m2/s | self diffusion coefficient (348.06 K, 101000 kPa): 1.35e-09 m2/s | self diffusion coefficient (348.07 K, 100 kPa): 2.57e-09 m2/s | self diffusion coefficient (348.07 K, 50500 kPa): 1.79e-09 m2/s | self diffusion coefficient (348.07 K, 74500 kPa): 1.57e-09 m2/s | self diffusion coefficient (348.07 K, 348000 kPa): 5.2e-10 m2/s | self diffusion coefficient (348.08 K, 175000 kPa): 9.55e-10 m2/s | self diffusion coefficient (348.08 K, 200000 kPa): 8.68e-10 m2/s | self diffusion coefficient (348.08 K, 249500 kPa): 7.32e-10 m2/s | self diffusion coefficient (348.08 K, 299000 kPa): 6.15e-10 m2/s | self diffusion coefficient (348.08 K, 350000 kPa): 5.16e-10 m2/s
